Data as given in patent publication US11104689B2, “Influenza virus replication inhibitor and use thereof” (SUNSHINE LAKE PHARMA CO., LTD., priority 2017, dated 2021).
Read-outs that look alike come from different tables or passages of the source.

Tests used:
[1] = system: influenza virus (A/Weiss/43(H1N1)); assay: Cytopathic effect assay (CPE assay), antiviral activity; assay type: cell-based; settings: MDCK cells, CPE inhibition, CCK-8, read-out: EC50 against influenza virus (A/Weiss/43(H1N1)) in vitro
[2] = Cytotoxicity test group of the CPE assay (no virus added, CCK-8 kit); assay type: cell-based; settings: dog, MDCK cells
Experimental: (§1) Experimental Procedures: MDCK cells were seeded in a 384-well plate with 2000 cells per wells, which were incubated overnight at 37° C., 5% CO2; The culture medium was changed to the fresh culture solution containing different concentrations of the compound and virus H1N1 A/Weiss/43 at a multiplicity of infection to yield 80-95% CPE on the second day. The test compound was serially diluted from the highest concentration of 100 nM in 1:3 dilutions to give 8 concentrations: 100 nM, 33.33 nM, 11.11 nM, 3.70 nM, 1.23 nM, 0.41 nM, 0.14 nM, 0.05 nM. At the same time, a non-medicated virus control group and a non-medicated cell control group free of virus were set up. No virus was added in the cytotoxicity test group but medium was added for replacement. Each group was set in duplicate, and incubated at 37° C. in 5% CO2. The cell activity was measured according to the CCK-8 kit (source: Shanghai Liji Biotechnology Co., Ltd. #D3100L4057) and the data would be used to calculate the antiviral and cytotoxicity of the compound. Data were analyzed by GraphPad Prism, CPE inhibition rate was calculated, and the EC50 was obtained according to the fitted curve. CPE inhibition rate=(absorbance of dosing hole-absorbance of virus control well)/(absorbance of cell control well-virus control well)×100%

[3] = set-up: species or system Beagle dogs; settings: male, beagle, dog, in vivo
Experimental: Pharmacokinetic studies of compounds of the invention in healthy adult male SD rats, dogs or monkeys were evaluated. The compound of the present invention was administered in form of a solution containing 10% DMSO+10% Kolliphor HS 15+80% physiological saline solution. For intravenous (iv) administration, animals were given with a dose of 0.2 or 1 mg/kg and blood was taken at 0.083, 0.25, 0.5, 1.0, 2.0, 5.0, 7.0, and 24 hours (0.3 mL) and centrifugated for 10 minutes at 3,000 or 4,000 rpm. For oral (po) administration, animals were given with a dose of 1 or 5 mg/kg, taken at 0.25, 0.5, 1.0, 2.0, 5.0, 7.0, and 24 hours (0.3 mL) and centrifugated at 3,000 or 4,000 rpm for 10 minutes. The plasma solution was collected and stored at −20° C. or −70° C. until the LC/MS/MS analysis was performed.

MDCK cells = assay: Cytotoxicity test group of the CPE assay (no virus added, CCK-8 kit); assay type: cell-based
Experimental: as §1

Molecule | EC50 ([1]; H1N1) | CC50 [2] | further results
O=C1c2c(O)c(=O)ccn2N([C@H]2c3ccc(F)cc3-c3ccsc3-c3ccccc32)[C@@H]2COCCN12 (mixture of isomers) [Example 37, The mixture of (R)-12-((S)-5-fluoro-8H-dibenzo[3,4:6,7]cyclohepta[1,2-b]thiophen-8-yl)-7-hydroxy-3,4,12,12a-tetrahydro-1H-[1,4]oxazino[3,4-c]pyrido[2,1-f][1,2,4]triazine-6,8-dione and (S)-12-((R)-5-fluoro-8H-dibenzo [3,4:6,7]cyclohepta[1,2-b]thiophen-8-yl)-7-hydroxy-3,4,12,12a-tetrahydro-1H-[1,4]oxazino [3,4-c]pyrido [2,1-f][1,2,4]triazine-6,8-dione] | 14.9 nM | 104000 nM | 
O=C1c2c(O)c(=O)ccn2N([C@H]2c3ccccc3-c3ccsc3-c3ccccc32)[C@@H]2COCCN12 (racemic) [Example 2, (R)-12-((S)-8H-dibenzo [3,4:6,7]cycloheptyl [1,2-b]thiophen-8-yl)-7-hydroxy-3,4,12,12a-tetrahydro-1H-[1,4] oxazino[3,4-c] pyrido [2,1-f] [1,2,4] triazine-6,8-dione and (S)-12-((R)-8H-dibenzo [3,4:6,7]cycloheptyl [1,2-b]thiophen-8-yl)-7-hydroxy-3,4,12,12a-tetrahydro-1H-[1,4] oxazino[3,4-c] pyrido [2,1-f][1,2,4] triazine-6,8-dione] | 22.8 nM | > 100000 nM | 
O=C1c2c(O)c(=O)ccn2N([C@H]2c3ccccc3-c3ccsc3-c3ccccc32)[C@H]2COCCN12 (racemic) [Example 3, (S)-12-((S)-8H-dibenzo [3,4:6,7]cycloheptyl [1,2-b]thiophen-8-yl)-7-hydroxy-3,4,12,12a-tetrahydro-1H-[1,4] oxazino [3,4-c] pyrido [2,1-f] [1,2,4] triazine-6,8-dione and (R)-12-((R)-8H-dibenzo [3,4:6,7]cycloheptyl [1,2-b]thiophen-8-yl)-7-hydroxy-3,4,12,12a-tetrahydro-1H-[1,4] oxazino [3,4-c] pyrido [2,1-f][1,2,4] triazine-6,8-dione] | 23.5 nM | > 100000 nM | 
O=C1c2c(O)c(=O)ccn2N([C@H]2c3ccc(F)c(F)c3CSc3c2ccc2ccccc32)[C@@H]2COCCN12 (racemic) [Example 7, (R)-12-((S)-10,11-difluoro-7,12-dihydrobenzo [e]naphtho [1,2-b]thiepin-7-yl)-7-hydroxy-3,4,12,12a-tetrahydro-11H-[1,4] oxazino [3,4-c] pyrido [2,1-f] [1,2,4] triazine-6,8-dione and (S)-12-((R)-10,11-difluoro-7,12-dihydrobenzo[e]naphtho[1,2-b]thiepin-7-yl)-7-hydroxy-3,4,12,12a-tetrahydro-1H-[1,4]oxazino[3,4-c]pyrido[2,1-f][1,2,4]triazine-6,8-dione] |  | > 100000 nM | 
COc1cccc2c1-c1ccsc1-c1ccccc1C2N1[C@@H]2COCCN2C(=O)c2c(O)c(=O)ccn21 (stereo in doubt) [Example 19, (12aR)-7-hydroxy-12-((8R)-4-methoxy-8H-dibenzo [3,4:6,7]cyclohept[1,2-b]thiophen-8-yl)-3,4,12,12a-tetrahydro-1H-[1,4]oxazino[3,4-c]pyrido[2,1-f] [1,2,4]triazine-6,8-dione] | 34.1 nM | > 100000 nM | 
O=C1c2c(O)c(=O)ccn2N([C@H]2c3ccc(F)cc3-c3ccsc3-c3cc(F)ccc32)[C@@H]2COCCN12 [Compound (17-1), (R)-12-((S)-5,11-difluoro-8H-dibenzo[3,4:6,7]cyclohepta[1,2-b]thiophen-8-yl)-7-hydroxy-3,4,12,12a-tetrahydro-1H-[1,4]oxazino[3,4-c]pyrido[2,1-f][1,2,4]triazine-6,8-dione] | 18.8 nM | 77500 nM | 
O=C1c2c(O)c(=O)ccn2N([C@H]2c3ccc(F)cc3-c3ccsc3-c3ccccc32)[C@@H]2COCCN12 [Compound (20-1), (R)-12-((S)-5-fluoro-8H-dibenzo [3,4:6,7]cyclohept[1,2-b]thiophen-8-yl)-7-hydroxy-3,4,12,12a-tetrahydro-1H-[1,4]oxazino[3,4-c]pyrido[2,1-f][1,2,4]triazine-6,8-diketone] |  |  | EC50 [1]: 4.9 nM
O=C1c2c(O)c(=O)ccn2N([C@@H]2c3ccccc3-c3sccc3-c3c(F)cccc32)[C@@H]2COCCN12 [Compound (21-2), (12aR)-12-((8S)-4-fluoro-8H-dibenzo [3,4:6,7]cyclohept[1,2-b]thiophen-8-yl)-7-hydroxy-3,4,12,12a-tetrahydro-1H-[1,4]oxazino[3,4-c]pyrido[2,1-f] [1,2,4]triazine-6,8-dione] | 18.9 nM |  | 
O=C1c2c(O)c(=O)ccn2N(C2c3ccccc3SCc3c2ccc2ccccc32)C2COCCN12 (stereo not drawn) [Example 5, 12-(7,13-Dihydrobenzo [b]naphtho [2,1-e]thiepin-7-yl)-7-hydroxy-3,4,12,12a-tetrahydro-1H-[1,4] oxazino [3,4-c] pyrido [2,1-f] [1,2,4]triazine-6,8-dione] |  | > 100000 nM | 
O=C1c2c(O)c(=O)ccn2N(C2c3ccccc3-c3ccsc3-c3c2ccc(F)c3F)C2COCCN12 (stereo not drawn) [Example 11, 12-(11,12-Difluoro-8H-dibenzo [3,4:6,7]cycloheptyl [1,2-b]thiophen-8-yl)-7-Hydroxy-3,4,12, 12a-tetrahydro-1H-[1,4]oxazino[3,4-c]pyrido[2,1-f][1,2,4]triazine-6,8-dione] | 48.7 nM |  | 
O=C1c2c(O)c(=O)ccn2N(C2c3ccccc3-c3cc(Cl)sc3-c3ccccc32)[C@@H]2COCCN12 (stereo partly drawn) [Example 15, (12aR)-12-(2-chloro-8H-dibenzo [3,4:6,7]cyclohept[1,2-b]thiophen-8-yl)-7-hydroxy-3,4,12,12a-tetrahydro-1H-[1,4] oxazino [3,4-c] pyrido [2,1-f] [1,2,4]triazine-6,8-dione] |  | 39400 nM | 
COC(=O)OCOc1c2n(ccc1=O)N([C@H]1c3ccc(F)cc3-c3ccsc3-c3ccccc31)[C@@H]1COCCN1C2=O [Example 28, methyl (((R)-12-((S)-5-fluoro-8H-dibenzo [3,4:6,7]cyclohept[1,2-b]thiophen-8-yl)-6,8-dioxo 3,4,6,8,12,12a-hexahydro-1H-[1,4]oxazino [3,4-c]pyrido [2,1-f] [1,2, 4]triazin-7-yl)oxy)methyl carbonate] |  |  | Conversion in animals [3]: converted to the compound of Example 21 (21-1) in animals; AUCINF ([3]; iv, 0.2 mg/kg): 1030 ng·h/mL; AUClast ([3]; iv, 0.2 mg/kg): 996 ng·h/mL; Cmax ([3]; iv, 0.2 mg/kg): 144 ng/mL; clearance ([3]; iv, 0.2 mg/kg): 3.22 mL/min/kg; t1/2 ([3]; iv, 0.2 mg/kg): 4.91 h; AUCINF ([3]; po, 1 mg/kg): 2580 ng·h/mL; AUClast ([3]; po, 1 mg/kg): 2430 ng·h/mL; Cmax ([3]; po, 1 mg/kg): 311 ng/mL; F ([3]; po, 1 mg/kg): 57.6%; t1/2 ([3]; po, 1 mg/kg): 5.72 h
O=C1c2c(O)c(=O)ccn2N([C@H]2c3ccccc3-c3cnoc3-c3ccccc32)[C@@H]2COCCN12 [Example 38, 12-(8H-Dibenzo [3,4:6,7]cyclohepta[1,2-d]isoxazol-8-yl)-7-hydroxy-3,4,12,12a-tetrahydro-1H-[1,4]oxazino[3,4-c]pyrido[2,1-f] [1,2,4]triazin-6,8-dione] | 38 nM | > 100000 nM | 
(12aR)-12-((8R)-4,5-difluoro-2-phenyl-8H-dibenzo[3,4:6,7]cyclohept[1,2-b]thiophen-8-yl)-7-hydroxy-3,4,12,12a-tetrahydro-1H-[1,4]oxazino[3,4-c]pyrido[2,1-f] [1,2,4] triazine-6,8-dione and (12aS)-12-((8S)-4,5-difluoro-2-phenyl-8H-dibenzo[3,4:6,7]cyclohept[1,2-b]thiophen-8-yl)-7-hydroxy-3,4,12,12a-tetrahydro-1H-[1,4] oxazino [3,4-c] pyrido [2,1-f][1,2,4] triazine-6,8-dione [Example 12] |  |  | EC50 [1]: 49.3 nM; CC50 (MDCK cells): 112000 nM
The mixture of (12aR)-12-((8R)-4-fluoro-8H-dibenzo [3,4:6,7]cyclohepta[1,2-b]thiophen-8-yl)-7-hydroxy-3,4,12,12a-tetrahydro-1H-[1,4]oxazino [3,4-c] pyrido [2,1-f] [1,2,4]triazine-6,8-dione and (12aR)-12-((8S)-4-fluoro-8H-dibenzo [3,4:6,7] cyclohept[1,2-b]thiophen-8-yl)-7-hydroxy-3,4,12,12a-tetrahydro-1H-[1,4]oxazino [3,4-c] pyrido [2,1-f] [1,2,4]triazine-6,8-dione [Example 36] |  |  | EC50 [1]: 9.87 nM; CC50 (MDCK cells): 36000 nM
